Test system: 186277-243-T-J2-PDC complex spheroids, viability
Test: Anticancer human tumor 186277-243-T-J2-PDC patient-derived colon adenocarcinoma cell line growth inhibition [RAS]
Details: for IC50: curve of first compound; for viability, T/C: stronger effect = lower value
Method in brief: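 Tumour cells grown as complex spheroids with HUVEC endothelial cells and mesenchymal stem cells, treated with RAS pathway inhibitor combinations. Each agent spans half-log steps from near clinical Cmax, or 10 microM where Cmax is unknown.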

[1] = second compound 0.000949 µM, first compound 0.0316 µM
[2] = second compound 0.000949 µM, first compound 0.1 µM
[3] = second compound 0.000949 µM, first compound 0.316 µM
[4] = second compound 0.000949 µM, first compound 1 µM
[5] = second compound 0.003 µM, first compound 0.0316 µM
[6] = second compound 0.003 µM, first compound 0.1 µM
[7] = second compound 0.003 µM, first compound 0.316 µM
[8] = second compound 0.003 µM, first compound 1 µM
[9] = second compound 0.00949 µM, first compound 0.0316 µM
[10] = second compound 0.00949 µM, first compound 0.1 µM
[11] = second compound 0.00949 µM, first compound 0.316 µM
[12] = second compound 0.00949 µM, first compound 1 µM
[13] = second compound 0.03 µM, first compound 0.0316 µM
[14] = second compound 0.03 µM, first compound 0.1 µM
[15] = second compound 0.03 µM, first compound 0.316 µM
[16] = second compound 0.03 µM, first compound 1 µM
[17] = second compound 0.0949 µM, first compound 0.0316 µM
[18] = second compound 0.0949 µM, first compound 0.1 µM
[19] = second compound 0.0949 µM, first compound 0.316 µM
[20] = second compound 0.0949 µM, first compound 1 µM
[21] = second compound 0.3 µM, first compound 0.0316 µM
[22] = second compound 0.3 µM, first compound 0.1 µM
[23] = second compound 0.3 µM, first compound 0.316 µM
[24] = second compound 0.3 µM, first compound 1 µM
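Also: spheroids exposed to compounds for 7 days before viability read.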

CC(=O)OC12COC1CC(O)C1(C)C(=O)C(O)C3=C(C)C(OC(=O)C(O)C(NC(=O)OC(C)(C)C)c4ccccc4)CC(O)(C(OC(=O)c4ccccc4)C21)C3(C)C (centres undefined) + CCn1c(-c2cccnc2C(C)OC)c2c3cc(ccc31)N1CCOC(CC(NC(=O)C(C(C)C)N(C)C(=O)C3(F)CCN(C(=O)C#CC(C)(C)N(C)C)CC3)C(=O)N3CCCC(N3)C(=O)OCC(C)(C)C2)C1 gave an IC50 (second compound 0.000949 µM) of less than 31.6 nM, an IC50 (second compound 0.003 µM) of less than 31.6 nM and an IC50 (second compound 0.00949 µM) of less than 31.6 nM. It also gave an IC50 (second compound 0.03 µM) of less than 31.6 nM, an IC50 (second compound 0.0949 µM) of less than 31.6 nM and an IC50 (second compound 0.3 µM) of less than 31.6 nM. It also gave a viability, T/C [1] of 6.09%, a viability, T/C [2] of 4.29% and a viability, T/C [3] of 4.45%. It also gave a viability, T/C [4] of 5%, a viability, T/C (second compound 0.000949 µM, first compound 3.16 µM) of 4.34% and a viability, T/C (second compound 0.000949 µM, first compound 10 µM) of 4.13%. It also gave a viability, T/C [5] of 6%, a viability, T/C [6] of 5.13% and a viability, T/C [7] of 5.03%. It also gave a viability, T/C [8] of 4.41%, a viability, T/C (second compound 0.003 µM, first compound 3.16 µM) of 4.14% and a viability, T/C (second compound 0.003 µM, first compound 10 µM) of 4.35%. It also gave a viability, T/C [9] of 6.17%, a viability, T/C [10] of 4.96% and a viability, T/C [11] of 4.57%. The viability, T/C [12] was 4.98%, the viability, T/C (second compound 0.00949 µM, first compound 3.16 µM) was 4.48% and the viability, T/C (second compound 0.00949 µM, first compound 10 µM) was 3.96%. For the same compound, the viability, T/C [13] was 5.87%, the viability, T/C [14] was 4.93% and the viability, T/C [15] was 4.72%. For the same compound, the viability, T/C [16] was 3.83%, the viability, T/C (second compound 0.03 µM, first compound 3.16 µM) was 4.63% and the viability, T/C (second compound 0.03 µM, first compound 10 µM) was 4.2%. For the same compound, the viability, T/C [17] was 5.78%, the viability, T/C [18] was 4.53% and the viability, T/C [19] was 4.78%. The viability, T/C [20] was 4.23%, the viability, T/C (second compound 0.0949 µM, first compound 3.16 µM) was 4.24% and the viability, T/C (second compound 0.0949 µM, first compound 10 µM) was 4.22%. The viability, T/C [21] was 4.84%, the viability, T/C [22] was 3.52% and the viability, T/C [23] was 3.6%. For the same compound, the viability, T/C [24] was 3.55%, the viability, T/C (second compound 0.3 µM, first compound 3.16 µM) was 3.32% and the viability, T/C (second compound 0.3 µM, first compound 10 µM) was 3.72%.

With Nc1ccn(C2OC(CO)C(O)C2(F)F)c(=O)n1 (centres undefined) + CCn1c(-c2cccnc2C(C)OC)c2c3cc(ccc31)N1CCOC(CC(NC(=O)C(C(C)C)N(C)C(=O)C3(F)CCN(C(=O)C#CC(C)(C)N(C)C)CC3)C(=O)N3CCCC(N3)C(=O)OCC(C)(C)C2)C1 the IC50 (second compound 0.000949 µM) was 4.49 nM, the IC50 (second compound 0.003 µM) was 4.28 nM and the IC50 (second compound 0.00949 µM) was 3.48 nM. The IC50 (second compound 0.03 µM) was 4.6 nM, the IC50 (second compound 0.0949 µM) was less than 3.16 nM and the IC50 (second compound 0.3 µM) was less than 3.16 nM. For the same compound, the viability, T/C (second compound 0.000949 µM, first compound 0.00316 µM) was 67.5%, the viability, T/C (second compound 0.000949 µM, first compound 0.01 µM) was 10.1% and the viability, T/C [1] was 8.11%. The viability, T/C [2] was 7.98%, the viability, T/C [3] was 8.36% and the viability, T/C [4] was 8.73%. The viability, T/C (second compound 0.003 µM, first compound 0.00316 µM) was 63.9%, the viability, T/C (second compound 0.003 µM, first compound 0.01 µM) was 11.2% and the viability, T/C [5] was 8.78%. The viability, T/C [6] was 8.02%, the viability, T/C [7] was 8.07% and the viability, T/C [8] was 8.41%. For the same compound, the viability, T/C (second compound 0.00949 µM, first compound 0.00316 µM) was 53.5%, the viability, T/C (second compound 0.00949 µM, first compound 0.01 µM) was 10.5% and the viability, T/C [9] was 9.25%. The viability, T/C [10] was 7.85%, the viability, T/C [11] was 8.92% and the viability, T/C [12] was 8.55%. It also gave a viability, T/C (second compound 0.03 µM, first compound 0.00316 µM) of 68.8%, a viability, T/C (second compound 0.03 µM, first compound 0.01 µM) of 10.9% and a viability, T/C [13] of 8.53%. For the same compound, the viability, T/C [14] was 8.14%, the viability, T/C [15] was 8.68% and the viability, T/C [16] was 8.3%. It also gave a viability, T/C (second compound 0.0949 µM, first compound 0.00316 µM) of 44.6%, a viability, T/C (second compound 0.0949 µM, first compound 0.01 µM) of 10.5% and a viability, T/C [17] of 8.39%. The viability, T/C [18] was 7.33%, the viability, T/C [19] was 8.62% and the viability, T/C [20] was 7.75%. The viability, T/C (second compound 0.3 µM, first compound 0.00316 µM) was 30.3%, the viability, T/C (second compound 0.3 µM, first compound 0.01 µM) was 7.82% and the viability, T/C [21] was 6.28%. For the same compound, the viability, T/C [22] was 6.15%, the viability, T/C [23] was 6.47% and the viability, T/C [24] was 5.78%.
